Assay results as given in ChEMBL document CHEMBL1146126 (Bioorg Med Chem Lett, 2006).

Legend:
[1] = molecular target: Prostaglandin E2 receptor EP2 subtype (Rattus norvegicus, UniProt Q62928); assay: Binding affinity to rat EP2 receptor expressed in HEK293 cells; assay type: cell-based
[2] = molecular target: T1, Prostaglandin E2 receptor EP4 subtype (Rattus norvegicus, UniProt P43114); assay: Binding affinity to rat EP4 receptor expressed in HEK293 cells; assay type: cell-based
[3] = molecular target: Prostaglandin E2 receptor EP4 subtype (Rattus norvegicus) (UniProt P43114); assay: Activity at rat EP4 transfected in HEK293 cells by cAMP accumulation compared to PGE2; assay type: functional, cell-based
Sequence of Prostaglandin E2 receptor EP4 subtype (Rattus norvegicus) (P43114 whole entry): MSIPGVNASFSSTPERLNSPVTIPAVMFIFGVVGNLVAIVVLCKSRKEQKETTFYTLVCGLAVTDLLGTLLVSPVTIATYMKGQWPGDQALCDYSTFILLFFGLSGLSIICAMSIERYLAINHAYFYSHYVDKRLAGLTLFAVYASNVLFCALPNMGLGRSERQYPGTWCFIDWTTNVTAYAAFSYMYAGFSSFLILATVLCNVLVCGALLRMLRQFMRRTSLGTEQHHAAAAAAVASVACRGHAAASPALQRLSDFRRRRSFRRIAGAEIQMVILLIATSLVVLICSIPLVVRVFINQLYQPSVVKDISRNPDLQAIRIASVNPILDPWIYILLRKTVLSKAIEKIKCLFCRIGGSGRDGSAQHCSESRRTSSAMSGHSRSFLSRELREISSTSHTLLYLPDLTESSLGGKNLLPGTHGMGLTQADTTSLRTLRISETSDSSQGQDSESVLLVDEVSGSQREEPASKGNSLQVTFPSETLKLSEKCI

[4] = molecular target: T1, Prostaglandin E2 receptor EP4 subtype; assay: Activity at rat EP4 transfected in HEK293 cells by cAMP accumulation; assay type: functional, cell-based
[5] = molecular target: T2, Prostaglandin E2 receptor EP1 subtype (Homo sapiens, UniProt P34995); assay: Binding affinity to human EP1 receptor expressed in HEK293 cells; assay type: cell-based
T2 sequence (P34995 whole entry): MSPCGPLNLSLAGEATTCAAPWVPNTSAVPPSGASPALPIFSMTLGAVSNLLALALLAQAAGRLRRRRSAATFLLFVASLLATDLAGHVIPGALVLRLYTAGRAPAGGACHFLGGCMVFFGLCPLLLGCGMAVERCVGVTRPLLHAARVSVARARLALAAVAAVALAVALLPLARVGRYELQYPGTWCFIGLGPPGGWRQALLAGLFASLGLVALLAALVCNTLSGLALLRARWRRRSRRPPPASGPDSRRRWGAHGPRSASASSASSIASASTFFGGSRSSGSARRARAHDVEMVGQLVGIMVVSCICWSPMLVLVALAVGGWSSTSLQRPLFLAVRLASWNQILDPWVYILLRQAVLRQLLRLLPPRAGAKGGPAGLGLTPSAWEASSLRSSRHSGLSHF

[6] = molecular target: T3, Prostaglandin E2 receptor EP3 subtype (Homo sapiens, UniProt P43115); assay: Binding affinity to human EP3 receptor expressed in HEK293 cells; assay type: cell-based
T3 sequence (P43115 whole entry): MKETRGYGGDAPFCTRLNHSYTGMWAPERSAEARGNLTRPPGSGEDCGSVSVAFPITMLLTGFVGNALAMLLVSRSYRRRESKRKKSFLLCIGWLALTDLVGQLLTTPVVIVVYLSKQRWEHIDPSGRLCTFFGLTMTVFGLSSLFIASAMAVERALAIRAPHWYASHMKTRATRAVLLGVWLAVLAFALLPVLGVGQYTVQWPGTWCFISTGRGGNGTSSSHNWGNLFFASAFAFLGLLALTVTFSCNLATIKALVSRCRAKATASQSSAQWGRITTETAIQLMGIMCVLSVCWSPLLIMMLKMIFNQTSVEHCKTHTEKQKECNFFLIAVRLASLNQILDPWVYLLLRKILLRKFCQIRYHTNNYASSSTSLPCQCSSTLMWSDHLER

Rattus norvegicus [7] = assay: Increase in cortical thickness at 10 mg/kg, sc 28 days post dose in ovariectomized osteopenic rat; assay type: functional; conditions: route subcutaneous
Rattus norvegicus [8] = assay: Increase in cortical area at 10 mg/kg, sc 28 days post dose in ovariectomized osteopenic rat; assay type: functional; conditions: route subcutaneous
Rattus norvegicus [9] = assay: Increase in cortical content at 30 mg/kg, sc 28 days post dose in ovariectomized osteopenic rat; assay type: functional; conditions: route subcutaneous
[10] = Half life in iv dosed Sprague-Dawley rat; assay type: ADME, organism-based; conditions: in vivo
[11] = Oral bioavailability in Sprague-Dawley rat; assay type: ADME, organism-based; conditions: in vivo
Rattus norvegicus [12] = assay: Increase in total bone content at 10 mg/kg, sc 28 days post dose in ovariectomized osteopenic rat; assay type: functional; conditions: route subcutaneous
Rattus norvegicus [13] = assay: Increase in cortical content at 10 mg/kg, sc 28 days post dose in ovariectomized osteopenic rat; assay type: functional; conditions: route subcutaneous
Rattus norvegicus [14] = assay: Increase in total bone content at 30 mg/kg, sc 28 days post dose in ovariectomized osteopenic rat; assay type: functional; conditions: route subcutaneous
Rattus norvegicus [15] = assay: Increase in cortical thickness at 30 mg/kg, sc 28 days post dose in ovariectomized osteopenic rat; assay type: functional; conditions: route subcutaneous
[16] = Half life in po dosed Sprague-Dawley rat; assay type: ADME, organism-based; conditions: in vivo
[17] = Half life in sc dosed Sprague-Dawley rat; assay type: ADME, organism-based; conditions: in vivo
Rattus norvegicus [18] = assay: Increase in cortical area at 30 mg/kg, sc 28 days post dose in ovariectomized osteopenic rat; assay type: functional; conditions: route subcutaneous
Rattus norvegicus [19] = assay: Volume distribution in sc dosed Sprague-Dawley rat; assay type: ADME, organism-based; conditions: in vivo
[20] = Plasma clearance in iv dosed Sprague-Dawley rat
Rattus norvegicus [21] = assay: Increase in total bone density at 30 mg/kg, sc 28 days post dose in ovariectomized osteopenic rat; assay type: functional; conditions: route subcutaneous
Rattus norvegicus [22] = assay: Increase in total bone density at 10 mg/kg, sc 28 days post dose in ovariectomized osteopenic rat; assay type: functional; conditions: route subcutaneous

Sequence of Prostaglandin E2 receptor EP2 subtype (Q62928 whole entry): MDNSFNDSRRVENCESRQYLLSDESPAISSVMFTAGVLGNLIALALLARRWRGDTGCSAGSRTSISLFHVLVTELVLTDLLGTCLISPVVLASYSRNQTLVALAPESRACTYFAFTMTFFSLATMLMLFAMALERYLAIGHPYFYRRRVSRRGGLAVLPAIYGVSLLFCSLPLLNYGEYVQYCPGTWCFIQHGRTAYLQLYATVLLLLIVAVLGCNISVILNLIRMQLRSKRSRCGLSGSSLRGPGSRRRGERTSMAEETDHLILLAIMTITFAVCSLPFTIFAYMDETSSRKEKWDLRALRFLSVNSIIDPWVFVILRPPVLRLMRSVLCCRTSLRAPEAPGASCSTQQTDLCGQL
T1 sequence (P43114 whole entry): as the sequence (P43114 whole entry) above

Compound | IC50 [1] [nM] | IC50 [2] [nM] | Activity [3] [%] | EC50 [4] [nM] | other results
O=C(O)CCCCCCN1C(=O)CCC1CCC(O)CCc1ccccc1 (stereo not given) | > 3200 | > 3200 | – | – | –
O=C(O)c1ccc(CCCN2C(=O)CC[C@@H]2CC[C@@H](O)Cc2cccc(Cl)c2)s1 | 188 | 1.1 | 70 | 0.6 | –
O=C(O)CCCCCCN1C(=O)CC[C@@H]1CC[C@@H](O)Cc1cccc(O)c1 | > 3200 | 1200 | 100 | 170 | –
O=C(O)c1ccc(CCCN2C(=O)CC[C@@H]2CCC(O)Cc2cccc(-c3ccccc3)c2)s1 (stereo not given in full) | 135 | 50 | 95 | 203 | IC50 [5]: 18600 nM; IC50 [6]: 20000 nM
O=C(O)c1ccc(CCCN2C(=O)CC[C@@H]2CCC(O)Cc2ccc(Cl)cc2)s1 (stereo not given in full) | 86 | 80 | 90 | 40 | IC50 [5]: > 3200 nM; IC50 [6]: > 3200 nM
N#Cc1cccc(C[C@H](O)CC[C@H]2CCC(=O)N2CCCCCCC(=O)O)c1 | > 3200 | 388 | 104 | 96 | –
O=C(O)c1ccc(CCCN2C(=O)CC[C@@H]2CCC(O)Cc2ccccc2-c2ccccc2)s1 (stereo not given in full) | 125 | 1600 | – | – | –
O=C(O)CCCCCCN1C(=O)CC[C@@H]1CC[C@@H](O)CCc1ccccc1 | > 3200 | 2710 | – | – | –
O=C(O)c1ccc(CCCN2C(=O)CC[C@@H]2CCC(O)Cc2cccc(F)c2)s1 (stereo not given in full) | 640 | 17 | 97 | 2.4 | –
COCCc1cccc(C[C@H](O)CC[C@H]2CCC(=O)N2CCCCCCC(=O)O)c1 | > 3200 | 210 | 82 | 92 | –
O=C(O)CCCCCCN1C(=O)CC[C@@H]1CC[C@@H](O)Cc1cccc(C(F)(F)F)c1 | > 3200 | – | 75 | 13 | Activity (Rattus norvegicus [7]): 34.12%; Activity (Rattus norvegicus [8]): 21.93%; Activity (Rattus norvegicus [9]): 57.7%; half-life [10]: 12 min; bioavailability [11]: 17%; Activity (Rattus norvegicus [12]): 15.34%; Activity (Rattus norvegicus [13]): 29.78%; Activity (Rattus norvegicus [14]): 32.53%; Activity (Rattus norvegicus [15]): 124.19%; half-life [16]: 25.2 min; half-life [17]: 25.8 min; Activity (Rattus norvegicus [18]): 66.92%; Vdss (Rattus norvegicus [19]): 0.46 L/kg; clearance [20]: 71 mL/min/kg; Activity (Rattus norvegicus [21]): 23.7%; Activity (Rattus norvegicus [22]): 18.73%
O=C(O)c1ccc(CCCN2C(=O)CCC2CCC(O)Cc2cccc(Oc3ccccc3)c2)cc1 (stereo not given) | > 3200 | 220 | – | – | –
O=C(O)CCCCCCN1C(=O)CC[C@@H]1CCC(O)Cc1cccc(Oc2ccccc2)c1 (stereo not given in full) | > 3200 | – | – | – | IC50 [5]: > 3200 nM; IC50 [6]: > 3200 nM
O=C(O)c1ccc(CCCN2C(=O)CC[C@@H]2CCC(O)Cc2ccccc2)s1 (stereo not given in full) | 690 | 21 | 88 | 1.7 | –
O=C(O)c1ccc(CCCN2C(=O)CCC2CCC(O)Cc2ccc(F)cc2)cc1 (stereo not given) | > 3200 | 2770 | – | – | IC50 [5]: > 3200 nM; IC50 [6]: > 3200 nM
O=C(O)c1ccc(CCCN2C(=O)CCC2CCC(O)Cc2cccc(F)c2)cc1 (stereo not given) | > 3200 | 126 | – | – | –
O=C(O)c1ccc(CCCN2C(=O)CCC2CCC(O)Cc2cccc(Cl)c2)cc1 (stereo not given) | > 3200 | 42 | 106 | 425 | IC50 [5]: > 3200 nM; IC50 [6]: > 3200 nM
O=C(O)CCCCCCN1C(=O)CC[C@@H]1CCC(O)Cc1ccccc1 (stereo not given in full) | > 3200 | 54 | 114 | 32.5 | half-life [10]: 6 min; bioavailability [11]: 21%; IC50 [5]: > 3200 nM; IC50 [6]: > 3200 nM; half-life [16]: 27 min; half-life [17]: 21 min; Vdss (Rattus norvegicus [19]): 0.4 L/kg; clearance [20]: 101 mL/min/kg
O=C(O)c1ccc(CCCN2C(=O)CC[C@@H]2CC[C@@H](O)Cc2cccc(C(F)(F)F)c2)s1 | 483 | – | 102 | – | half-life [10]: 12 min; bioavailability [11]: 1%; half-life [16]: 52.2 min; half-life [17]: 18 min; Vdss (Rattus norvegicus [19]): 0.49 L/kg; clearance [20]: 70 mL/min/kg
O=C(O)CCCCCCN1C(=O)CC[C@@H]1CC[C@@H](O)Cc1cccc(OC(F)(F)F)c1 | > 3200 | 59 | 78 | 50 | –
O=C(O)CCCCCCN1C(=O)CCC1CCC(O)Cc1cccc(Cl)c1 (stereo not given) | > 3200 | 22 | 89 | 8.8 | –
O=C(O)c1ccc(CCCN2C(=O)CC[C@@H]2CC[C@@H](O)Cc2ccc(F)cc2)s1 | 1200 | 70 | 70 | 22 | –
O=C(O)c1ccc(CCCN2C(=O)CC[C@@H]2CCC(O)Cc2ccc3ccccc3c2)s1 (stereo not given in full) | > 3200 | 65 | 73 | 500 | –
O=C(O)c1ccc(CCCN2C(=O)CCC2CCC(O)Cc2cccc(-c3ccccc3)c2)cc1 (stereo not given) | > 3200 | 47 | 97 | 440 | –
CCc1ccc(CC(O)CC[C@H]2CCC(=O)N2CCCc2ccc(C(=O)O)s2)cc1 (stereo not given in full) | 1200 | 140 | 82 | 275 | –
O=C(O)c1ccc(CCCN2C(=O)CCC2CCC(O)Cc2ccccc2)cc1 (stereo not given) | > 3200 | 250 | – | – | IC50 [5]: > 3200 nM; IC50 [6]: > 3200 nM
O=C(O)c1ccc(CCCN2C(=O)CC[C@@H]2CC[C@@H](O)Cc2cccc(C(F)(F)F)c2)cc1 | > 3200 | 70 | 105 | 105 | –
COCc1cccc(C[C@H](O)CC[C@H]2CCC(=O)N2CCCCCCC(=O)O)c1 | > 3200 | 62 | 89 | 18 | IC50 [5]: > 3200 nM; IC50 [6]: > 2000 nM
O=C(O)CCCCCCN1C(=O)CC[C@@H]1CC[C@@H](O)Cc1cccc(-c2ccccc2)c1 | > 3200 | 337 | 101 | 195 | –
